Data reported in patent publication US11691972B2, “Compounds for targeted degradation of BRD9” (C4 Therapeutics, Inc., priority 2020, dated 2023).
Like-named read-outs stand apart in the source and are kept apart here.

Biological target: T1, BRD9 (Homo sapiens, UniProt Q9H8M2)
T1 sequence (Q9H8M2 1-597): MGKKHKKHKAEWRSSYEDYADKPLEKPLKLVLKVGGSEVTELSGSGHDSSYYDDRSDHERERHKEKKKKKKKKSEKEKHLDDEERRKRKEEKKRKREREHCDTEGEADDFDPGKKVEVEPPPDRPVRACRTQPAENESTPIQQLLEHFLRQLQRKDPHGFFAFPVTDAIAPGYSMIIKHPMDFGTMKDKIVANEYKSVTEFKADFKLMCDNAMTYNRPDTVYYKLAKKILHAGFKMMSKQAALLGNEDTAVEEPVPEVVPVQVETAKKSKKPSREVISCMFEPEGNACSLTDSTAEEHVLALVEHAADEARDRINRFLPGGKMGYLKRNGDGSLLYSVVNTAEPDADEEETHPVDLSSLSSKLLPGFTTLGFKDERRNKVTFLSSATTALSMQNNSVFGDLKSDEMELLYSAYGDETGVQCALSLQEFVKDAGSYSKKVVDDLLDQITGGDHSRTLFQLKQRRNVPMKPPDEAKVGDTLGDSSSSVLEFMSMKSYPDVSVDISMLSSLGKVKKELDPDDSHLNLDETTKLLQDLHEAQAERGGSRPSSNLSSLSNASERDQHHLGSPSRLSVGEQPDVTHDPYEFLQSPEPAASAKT
Test: HiBiT BRD9 degradation assay in 293T.166 (BRD9-HiBiT) cells
Assay type: cell-based
Parameters: endogenously expressing BRD9 with HiBiT fusion tag via CRISPR; host or cells: 293T.166 (BRD9-HiBiT), also expressing LgBiT ectopically
Settings: 293T.166 cells, 2.0 hours, class symbols, read-out: HiBiT-Degradation 293T.166 BRD9 2.0 hours (DC50)
How it was run: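 Luminescence from the Nano-Glo HiBiT lytic reagent quantified BRD9 loss after compounds (top 10 μM, half-log, 11 points, duplicates) were incubated 2 h at 37° C. with 10,000 293T.166 BRD9-HiBiT/LgBiT cells per well, with controls lacking compound or lacking reagent.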

Structure (SMILES) | DC50 (Table 1) [nM] | DC50 (Table 2) [nM]
CN(C(=O)N1CCC(c2ccc(NC3CCC(=O)NC3=O)cc2F)CC1)C1CCN(C(=O)c2ccc(-c3cn(C)c(=O)c4cc(F)ccc34)cc2OC(F)(F)F)CC1 (centres unmarked) [Compound 141] | < 100 | 
COc1cc(-c2cn(C)c(=O)c3[nH]ncc23)cc(OC)c1CN1CCC(C2CCN(c3ccc(NC4CCC(=O)NC4=O)cc3)CC2)CC1 (centres unmarked) [Compound 70, 3-[4-[4-[1-[[2,6-dimethoxy-4-(6-methyl-7-oxo-1H-pyrazolo[3,4-c]pyridin-4-yl)phenyl]methyl]-4-piperidyl]-1-piperidyl]anilino]piperidine-2,6-dione] | < 100 | 
COc1cc(CN2CCN(C(=O)CN3CCC(c4ccc(NC5CCC(=O)NC5=O)cc4)CC3)CC2)c(OC(C)C)cc1-c1cn(C)c(=O)c2[nH]ncc12 (centres unmarked) [Compound 26] | < 100 | 
COc1cc(-c2cn(C)c(=O)c3[nH]ncc23)cc(OC)c1CN1C[C@H]2CC(C(=O)N3CCC(c4ccc(NC5CCC(=O)NC5=O)cc4)CC3)C[C@H]2C1 (stereo partly drawn) [Compound 110, 3-[4-[1-[(3aR,6aS)-2-[[2,6-dimethoxy-4-(6-methyl-7-oxo-1H-pyrazolo[3,4-c]pyridin-4-yl)phenyl]methyl]-3,3a,4,5,6,6a-hexahydro-1H-cyclopenta[c]pyrrole-5-carbonyl]-4-piperidyl]anilino]piperidine-2,6-dione] | < 100 | 
Cn1cc(-c2ccc(C(=O)N3CCC(C4CCN(c5ccc(NC6CCC(=O)NC6=O)cc5F)CC4)CC3)c(OC(F)(F)F)c2)c2ccncc2c1=O (centres unmarked) [Compound 211] | < 100 | 
Cc1c(-c2ccc(C(C)N3CCC(C4CCN(c5ccc(NC6CCC(=O)NC6=O)cc5F)CC4)CC3)c(OC(F)(F)F)c2)cn(C)c(=O)c1C (centres unmarked) [Compound 91] | < 100 | 
Cn1cc(-c2ccc(CN3CCC(N4CCN(c5ccc(NC6CCC(=O)NC6=O)cc5F)CC4)C(F)(F)C3)c(OC(F)(F)F)c2)c2ccncc2c1=O (centres unmarked) [Compound 193] | < 100 | 
COc1cc(-c2cn(C)c(=O)c3[nH]ncc23)cc(OC)c1CN1C[C@H]2C[C@@H]1CN2C(=O)CN1CCC(c2ccc(NC3CCC(=O)NC3=O)cc2)CC1 (some centres unmarked) [Compound 14] | < 100 | 
COc1cc(CN2CCN(C(=O)CN3CCC(c4ccc(NC5CCC(=O)NC5=O)cc4)CC3)CC2)c(OCC(F)F)cc1-c1cn(C)c(=O)c2[nH]ncc12 (centres unmarked) [Compound 25] | < 100 | 
COc1cc(-c2cn(C)c(=O)c(C)c2C)cc(Cl)c1C(=O)N1CCC(CCC2CCN(c3ccc(NC4CCC(=O)NC4=O)cc3F)CC2)CC1 (centres unmarked) [Compound 243] | < 100 | 
COc1cc(-c2cn(C)c(=O)c3cnccc23)cc(Cl)c1CN1CCC(C2CCN(c3ccc(NC4CCC(=O)NC4=O)cc3Cl)CC2)CC1 (centres unmarked) [Compound 77] | < 100 | 
COc1cc(-c2cn(C)c(=O)c3[nH]ncc23)cc(OC)c1CN1CCN(C(=O)CN2CCC(c3ccc(NC4CCC(=O)NC4=O)cc3)CC2)CC1 (single isomer, unassigned) [Compound 2] | < 100 | 
COc1cc(-c2cn(C)c(=O)c3[nH]ncc23)cc(OC)c1CN1CCN(C(=O)CN2CCC(c3ccc(OC4CCC(=O)NC4=O)cc3)CC2)CC1 (centres unmarked) [Compound 21] | < 100 | 
COc1cc(-c2cn(C)c(=O)c3[nH]ncc23)cc(OC)c1CN1CCN(C(=O)CC2CCN(c3ccc(NC4CCC(=O)NC4=O)cc3C(F)(F)F)CC2)C(C)(C)C1 (centres unmarked) [Compound 57] | < 100 | 
COc1cc(-c2cn(C)c(=O)c3[nH]ncc23)cc(F)c1CN1CCN(C(=O)CN2CCC(c3ccc(NC4CCC(=O)NC4=O)cc3)CC2)CC1 (centres unmarked) [Compound 9] | < 100 | 
COc1cc(-c2cn(C)c(=O)c3cnccc23)cc(Cl)c1C=C1CCN(C(=O)CC2CCN(c3ccc(NC4CCC(=O)NC4=O)cc3F)CC2)CC1 (centres unmarked) [Compound 161, 3-[4-[4-[2-[4-[[2-chloro-6-methoxy-4-(2-methyl-1-oxo-2,7-naphthyridin-4-yl)phenyl]methylene]-1-piperidyl]-2-oxo-ethyl]-1-piperidyl]-3-fluoro-anilino]piperidine-2,6-dione] | < 100 | 

Structure (SMILES) | DC50 (Table 1) [nM] | DC50 (Table 2) [nM]
COc1cc(-c2cn(C)c(=O)c(C)c2C)cnc1CN1CCC(N2CCN(c3ccc(NC4CCC(=O)NC4=O)cc3F)CC2)C(F)(F)C1 (centres unmarked) [Compound 260, 3-[4-[4-[3,3-difluoro-1-[[3-methoxy-5-(1,4,5-trimethyl-6-oxo-3-pyridyl)-2-pyridyl]methyl]-4-piperidyl]piperazin-1-yl]-3-fluoro-anilino]piperidine-2,6-dione] |  | < 100
COc1cc(-c2cn(C)c(=O)c(C)c2C)cc(OC)c1CN1CCN(C(=O)CN2CCC(c3ccc(NC4CCC(=O)NC4=O)cc3)CC2)CC1 (centres unmarked) [Compound 30] | < 100 | 
COc1cc(-c2cn(C)c(=O)c3[nH]ncc23)cc(OC)c1CN1CCN(C(=O)CN2CCC(c3ccc(NC4CCC(=O)NC4=O)cc3C(F)(F)F)CC2)CC1 (centres unmarked) [Compound 18] | < 100 | 
COc1cc(-c2cn(C)c(=O)c3[nH]ncc23)cc(OC)c1CN1CCN(C(=O)CC2CCN(c3ccc(NC4CCC(=O)NC4=O)cc3Cl)CC2)CC1 (centres unmarked) [Compound 67] | < 100 | 
COc1cc(-c2cn(C)c(=O)c(C)c2C)cc(OC)c1C(=O)N1CCc2c(CC3CCN(c4ccc(NC5CCC(=O)NC5=O)cc4C(F)(F)F)CC3)cccc2C1 (centres unmarked) [Compound 238] | < 100 | 
COc1cc(-c2cn(C)c(=O)c3[nH]ncc23)cc(OC)c1CN1CCN(C(=O)CN2CCC(c3ccc(C4CCC(=O)NC4=O)cc3)CC2)CC1 (centres unmarked) [Compound 16] | < 100 | 
Cn1cc(-c2ccc(CN3CCC(N4CCN(c5ccc(NC6CCC(=O)NC6=O)nc5)CC4)C(F)(F)C3)c(OC(F)(F)F)c2)c2ccncc2c1=O (centres unmarked) [Compound 253, 3-[[5-[4-[3,3-difluoro-1-[[4-(2-methyl-1-oxo-2,7-naphthyridin-4-yl)-2-(trifluoromethoxy)phenyl]methyl]-4-piperidyl]piperazin-1-yl]-2-pyridyl]amino]piperidine-2,6-dione] |  | < 100
COc1cc(-c2cn(C)c(=O)c3ccc(F)cc23)cc(OC)c1CN1CCN(C(=O)CN2CCC(c3ccc(NC4CCC(=O)NC4=O)cc3)CC2)CC1 (centres unmarked) [Compound 27] | < 100 | 
COc1cc(-c2cn(C)c(=O)c(C)c2C)cc(Cl)c1CN1CCC(C2CCN(c3ccc(NC4CCC(=O)NC4=O)nc3)CC2)C(F)(F)C1 (centres unmarked) [Compound 273] |  | < 100
COc1cc(-c2cn(C)c(=O)c3[nH]ncc23)cc(F)c1CN1CCN(C(=O)CN2CCC(c3ccc(NC4CCC(=O)NC4=O)cc3C(F)(F)F)CC2)CC1 (centres unmarked) [Compound 23] | < 100 | 
Cn1cc(-c2ccc(CN3CCN(C(=O)CN4CCC(c5ccc(NC6CCC(=O)NC6=O)cc5)CC4)CC3)c(OC(F)(F)F)c2)c2cn[nH]c2c1=O (centres unmarked) [Compound 20] | < 100 | 
COc1cc(-c2cn(C)c(=O)c3[nH]ncc23)cc(Cl)c1C(=O)N1CCC(CC(=O)N2CCC(c3ccc(NC4CCC(=O)NC4=O)cc3)CC2)CC1 (centres unmarked) [Compound 233] | < 100 | 
COc1cc(-c2cn(C)c(=O)c3cnccc23)cc(Cl)c1CN1CCC(N(C)C(=O)N2CCC(c3ccc(NC4CCC(=O)NC4=O)cc3)CC2)C(F)(F)C1 (centres unmarked) [Compound 125] | < 100 | 
COc1cc(-c2cn(C)c(=O)c3[nH]ncc23)cc(OC)c1CN1CCN(C(=O)CN2CCC(c3ccc(NC4CCC(=O)NC4=O)cc3)C(F)(F)C2)CC1 (centres unmarked) [Compound 8] | < 100 | 
COc1cc(-c2cn(C)c(=O)c(C)c2C)cc(Cl)c1C=C1CCN(C(=O)CC2CCN(c3ccc(NC4CCC(=O)NC4=O)cc3F)CC2)CC1 (centres unmarked) [Compound 163] | < 100 | 
CN(C(=O)N1CCC(c2ccc(NC3CCC(=O)NC3=O)cc2)CC1)C1CCN(C(=O)c2ccc(-c3cn(C)c(=O)c4cc(F)ccc34)cc2OC(F)(F)F)CC1 (centres unmarked) [Compound 131] | < 100 | 
